Measured values: patent US8999981B2, “3-amido-pyrrolo[3,4-C]pyrazole-5(1H, 4H,6H) carbaldehyde derivatives” (Pfizer Inc., priority 2007, dated 2015)

Target: Protein Kinase C beta 2 (PKCβII) (Homo sapiens (Human), UniProt P05771)
Assay: PKCβII coupled PK/LDH spectrophotometric kinase assay
Assay type: biochemical
Settings: apparent Ki, ATP-competitive model (Morrison equation); 0.1 mM ATP, 30° C.; read-out: PKCb Ki
Procedure: This transfer is coupled to the oxidation of β-NADH through the activities of Pyruvate Kinase (PK) and Lactate Dehydrogenase (LDH). β-NADH conversion to NAD+ is monitored by the decrease in absorbance at 340 nm (e=6.22 cm^−1 mM^−1) using a Molecular Devices SPECTRA max PLUS spectrophotometer.
A typical assay was carried out on a 96-well, clear microtiter plate in a Molecular Devices spectrophotometer for 20 minutes at 30° C. in 0.1 mL of assay buffer containing 50 mM HEPES, pH 7.4, 5 nM PKC, 23 units of pyruvate kinase, 33 units of lactate dehydrogenase, 0.15 mM peptide, 0.1 mM ATP, 1 mM DTT, 4 mM PEP, 8 mM MgCl2, 0.3 mM NADH, 60 mM CaCl2, 10 mg/mL PS, 50 ng/mL PMA, 7.5% DMSO and from about 10,000 nM to 0.169 nM compound inhibitor. Stock solutions of 3-sn-phosphatidyl-L-serine (PS) and phorbol-12-myristate-13-acetate (PMA) were sonicated for 30 seconds just prior to addition to assay buffer and assays were initiated by the addition of 100 μM ATP.
Enzyme turnover values (kcat) were calculated according to […], where [E] is the total enzyme concentration. Enzyme inhibition constants (apparent K values) were determined by fitting initial velocities at variable inhibitor concentrations to a model for ATP competitive inhibition based on the Morrison equation). Morrison, J. F., Biochim. Biophys Acta 185: 269-286 (1969).

Chain of Protein Kinase C beta 2 (PKCβII) (P05771 other isoform, or with tags, fused parts or gaps): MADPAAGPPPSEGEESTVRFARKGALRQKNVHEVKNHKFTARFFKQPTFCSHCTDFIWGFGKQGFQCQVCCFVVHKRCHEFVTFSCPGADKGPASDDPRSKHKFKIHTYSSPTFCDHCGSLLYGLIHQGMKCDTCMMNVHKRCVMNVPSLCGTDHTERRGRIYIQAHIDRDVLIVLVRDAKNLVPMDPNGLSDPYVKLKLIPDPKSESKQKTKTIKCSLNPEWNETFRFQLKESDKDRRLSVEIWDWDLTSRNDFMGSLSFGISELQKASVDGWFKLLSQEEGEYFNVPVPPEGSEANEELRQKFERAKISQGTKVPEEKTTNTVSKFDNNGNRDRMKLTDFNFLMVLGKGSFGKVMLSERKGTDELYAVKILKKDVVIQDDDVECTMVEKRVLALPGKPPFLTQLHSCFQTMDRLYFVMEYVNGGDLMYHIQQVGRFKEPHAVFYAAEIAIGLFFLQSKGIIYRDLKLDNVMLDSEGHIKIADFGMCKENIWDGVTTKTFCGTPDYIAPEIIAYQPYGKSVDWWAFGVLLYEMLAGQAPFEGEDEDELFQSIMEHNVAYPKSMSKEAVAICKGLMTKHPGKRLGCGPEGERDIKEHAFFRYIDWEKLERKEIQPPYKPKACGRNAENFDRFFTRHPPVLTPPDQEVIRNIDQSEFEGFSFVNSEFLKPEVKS

SMILES | Ki [nM]
C[C@H]1CN2CCC[C@H]2CN1C(=O)N1Cc2c(NC(=O)c3ccc(C#N)cc3F)n[nH]c2C1(C)C [Example A66] | 122
C[C@H]1CN2CCC[C@H]2CN1C(=O)N1Cc2c(NC(=O)c3cccc(F)c3F)n[nH]c2C1(C)C [Example A63] | 65.4
CC1(C)c2[nH]nc(NC(=O)c3ccc4ccccc4n3)c2CN1C(=O)N1C[C@@H]2CCCN2C[C@@H]1Cc1ccccc1 [Example A14] | 16.1
CCc1cc(C(=O)Nc2n[nH]c3c2CN(C(=O)N2C[C@@H](C)N(CCCOC)C[C@@H]2C)C3(C)C)n(C)n1 [Example F4] | 37.3
CC[C@H]1CN2CCC[C@H]2CN1C(=O)N1Cc2c(NC(=O)c3ccc(F)cc3)n[nH]c2C1(C)C [Example A73] | 115
CC1(C)c2[nH]nc(NC(=O)c3cccc(F)c3F)c2CN1C(=O)N1C[C@@H]2CCCN2C[C@@H]1Cc1ccccc1 [Example A20] | 50.8
COCCCN1C[C@H](C)N(C(=O)N2Cc3c(NC(=O)Cc4c(C)noc4C)n[nH]c3C2(C)C)C[C@H]1C [Example F7] | 67.1
C[C@H]1CN2CCC[C@H]2CN1C(=O)N1Cc2c(NC(=O)c3ccc4cnccc4n3)n[nH]c2C1(C)C [Example E4] | 6.17
CC1(C)c2[nH]nc(NC(=O)c3cccc(Oc4ccccc4)c3)c2CN1C(=O)N1C[C@@H]2CCCN2C[C@@H]1Cc1ccccc1 [Example A3] | 36.8
C[C@H]1CN2CCC[C@H]2CN1C(=O)N1Cc2c(NC(=O)c3cc(Cl)ccn3)n[nH]c2C1(C)C [Example A68] | 21.3
C[C@H]1CN2CCC[C@H]2CN1C(=O)N1Cc2c(NC(=O)c3ccc(Cl)cn3)n[nH]c2C1(C)C [Example A67] | 24.3
CC[C@@H]1CN(C(=O)N2Cc3c(NC(=O)c4ccccn4)n[nH]c3C2(C)C)[C@@H](C)CN1C [Example A131] | 37.2
CN1CCN(C(=O)N2Cc3c(n[nH]c3NC(=O)c3cc4ccccc4s3)C2(C)C)[C@@H](Cc2ccccc2)C1 [Example A4] | 146
COc1cc(C(=O)Nc2n[nH]c3c2CN(C(=O)N2C[C@@H]4CCCN4C[C@@H]2C)C3(C)C)ccc1Cl [Example A48] | 68.8
COCCCN1C[C@H](C)N(C(=O)N2Cc3c(NC(=O)c4cnccn4)n[nH]c3C2(C)C)C[C@H]1C [Example F3] | 625
CC[C@H]1CN2CCC[C@H]2CN1C(=O)N1Cc2c(NC(=O)c3cccc(Cl)c3)n[nH]c2C1(C)C [Example A71] | 49.9
CCc1ccnc(C(=O)Nc2n[nH]c3c2CN(C(=O)N2C[C@@H]4CCCN4C[C@@H]2C)C3(C)C)c1 [Example A53] | 66.3
CC1CN(C(=O)N2Cc3c(NC(=O)c4ccccn4)n[nH]c3C2(C)C)C(C)CN1CCCO (stereo not shown) [Example A99] | 19.9
CCc1nc(C)c(C(=O)Nc2n[nH]c3c2CN(C(=O)N2C[C@@H](C)N(CCCOC)C[C@@H]2C)C3(C)C)o1 [Example F6] | 83.6
C[C@@H]1CN(C(=O)N2Cc3c(NC(=O)c4ccc(C#N)cn4)n[nH]c3C2(C)C)[C@@H](C)CN1CC1CCOCC1 [Example G3] | < 10
C[C@H]1CN2CCC[C@H]2CN1C(=O)N1Cc2c(NC(=O)c3ccnn3C)n[nH]c2C1(C)C [Example E8] | 118

SMILES | Ki [nM]
C[C@H](CCO)N1C[C@H](C)N(C(=O)N2Cc3c(NC(=O)c4ccccn4)n[nH]c3C2(C)C)C[C@H]1C [Example A154] | 25.1
Cc1noc(C)c1CC(=O)Nc1n[nH]c2c1CN(C(=O)N1C[C@@H](C)N(CC3CCOCC3)C[C@@H]1C)C2(C)C [Example F59] | 20
C[C@@H]1CN(C(=O)N2Cc3c(NC(=O)c4ccccn4)n[nH]c3C2(C)C)[C@@H](C)CN1CCCCC#N [Example A144] | 38.3
C[C@@H]1CN(C(=O)N2Cc3c(NC(=O)c4ccccn4)n[nH]c3C2(C)C)C[C@H](C)N1 [Example A29] | 77.6
C[C@@H]1CN(C(=O)N2Cc3c(NC(=O)c4ccccn4)n[nH]c3C2(C)C)[C@@H](C)CN1CC1CCOC1 (stereo partly shown) [Example A147] | < 10
C[C@H]1CN(C)C(C)(C)CN1C(=O)N1Cc2c(NC(=O)c3ccccn3)n[nH]c2C1(C)C [Example A129] | 18.1
C[C@H]1CN2CCC[C@H]2CN1C(=O)N1Cc2c(NC(=O)c3cscn3)n[nH]c2C1(C)C [Example A44] | 43.5
C[C@H]1CN2CCC[C@H]2CN1C(=O)N1Cc2c(NC(=O)c3cc(C4CC4)on3)n[nH]c2C1(C)C [Example E12] | 58.6
CCN1C[C@H](C)N(C(=O)N2Cc3c(NC(=O)c4ccccn4)n[nH]c3C2(C)C)C[C@H]1C [Example A95] | 9.11
COc1ccc(C(=O)Nc2n[nH]c3c2CN(C(=O)N2C[C@@H]4CCCN4C[C@@H]2C)C3(C)C)cc1 [Example A40] | 32.7
C[C@H]1CN(C)C2(CCC2)CN1C(=O)N1Cc2c(NC(=O)c3ccccn3)n[nH]c2C1(C)C [Example A133] | 8.58
C[C@@H]1CN(C(=O)N2Cc3c(NC(=O)c4ccc(C#N)cn4)n[nH]c3C2(C)C)[C@@H](C)CN1C [Example G2] | 28.7
C=CCN1C[C@H](C)N(C(=O)N2Cc3c(NC(=O)c4ccccn4)n[nH]c3C2(C)C)C[C@H]1C [Example A89] | 15.7
C[C@H]1CN2CCC[C@H]2CC1C(=O)N1Cc2c(NC(=O)c3csc(Br)n3)n[nH]c2C1(C)C (stereo partly shown) [Example A103] | 12.9
C[C@H]1CN2CCC[C@H]2CN1C(=O)N1Cc2c(NC(=O)c3ccc(F)c(Cl)c3)n[nH]c2C1(C)C [Example A49] | 53.6
Cc1nc(C)c(C(=O)Nc2n[nH]c3c2CN(C(=O)N2C[C@@H]4CCCN4C[C@@H]2C)C3(C)C)o1 [Example E11] | 28.9
CC1(C)c2[nH]nc(NC(=O)c3ccccn3)c2CN1C(=O)N1C[C@@H]2CCCN2C[C@@H]1CO [Example A78] | 165
CC(C)[C@H]1CN2CCC[C@H]2CN1C(=O)N1Cc2c(NC(=O)c3ccccn3)n[nH]c2C1(C)C [Example A100] | 14.1
COc1cccc(C(=O)Nc2n[nH]c3c2CN(C(=O)N2C[C@@H]4CCCN4C[C@@H]2C)C3(C)C)c1 [Example E5] | 37.5
C[C@H]1CN2C[C@@H](F)C[C@H]2CN1C(=O)N1Cc2c(NC(=O)c3ccccn3)n[nH]c2C1(C)C [Example A105] | 109
CC[C@H]1CN2CCC[C@H]2CN1C(=O)N1Cc2c(NC(=O)c3ccccn3)n[nH]c2C1(C)C [Example A70] | 46.2

SMILES | Ki [nM]
COc1cc(C(=O)Nc2n[nH]c3c2CN(C(=O)N2C[C@@H]4CCCN4C[C@@H]2C)C3(C)C)nc(OC)n1 [Example A59] | 94.5
Cc1nonc1C(=O)Nc1n[nH]c2c1CN(C(=O)N1C[C@@H](C)N(CC3CCOCC3)C[C@@H]1C)C2(C)C [Example F22] | 47.3
CC(C)[C@H]1CN(C)C(C)CN1C(=O)N1Cc2c(NC(=O)c3ccc(Cl)cn3)n[nH]c2C1(C)C (stereo partly shown) [Example A135] | 51.2
CCc1nc(C(=O)Nc2n[nH]c3c2CN(C(=O)N2C[C@@H](C)N(CC4CCOCC4)C[C@@H]2C)C3(C)C)cs1 [Example F25] | 33.3
C[C@H]1CN2CCC[C@@H]2CN1C(=O)N1Cc2c(NC(=O)c3ccccn3)n[nH]c2C1(C)C [Example A77] | 77.8
CCC[C@H]1CN2CCC[C@H]2CN1C(=O)N1Cc2c(NC(=O)c3ccccc3)n[nH]c2C1(C)C [Example A28] | 96.1
C[C@H]1CN2CCC[C@H]2CN1C(=O)N1Cc2c(NC(=O)c3ccc(F)cn3)n[nH]c2C1(C)C [Example A92] | 20.3
Cc1nc(C)c(C(=O)Nc2n[nH]c3c2CN(C(=O)N2C[C@@H](C)N(CC4CCOCC4)C[C@@H]2C)C3(C)C)s1 [Example F10] | 22.6
Cc1nc(C)c(C(=O)Nc2n[nH]c3c2CN(C(=O)N2C[C@@H](C)N(CC4CCOCC4)C[C@@H]2C)C3(C)C)o1 [Example F20] | 19.7
C[C@H]1CN2CCC[C@H]2CN1C(=O)N1Cc2c(NC(=O)c3c(F)cccc3Cl)n[nH]c2C1(C)C [Example A38] | 181
CC1(C)CN2CCC[C@H]2CN1C(=O)N1Cc2c(NC(=O)c3ccccn3)n[nH]c2C1(C)C [Example A82] | 81.8
CC1(C)c2[nH]nc(NC(=O)c3ccc4ccccc4n3)c2CN1C(=O)N1C[C@@H]2CCCN2C[C@@H]1Cc1ccccc1 [Example A13] | 27.7
C[C@@H]1CN(C(=O)N2Cc3c(NC(=O)c4ccc(F)cn4)n[nH]c3C2(C)C)[C@@H](C)CN1C1CCOCC1 [Example A149] | < 10
CC[C@H]1CN(C(=O)N2Cc3c(NC(=O)c4ccccn4)n[nH]c3C2(C)C)[C@@H](C)CN1C [Example A125] | 93.9
C[C@H]1CN2CCC[C@H]2CN1C(=O)N1Cc2c(NC(=O)c3ccc(Br)cn3)n[nH]c2C1(C)C [Example A91] | 20.3
CCc1ocnc1C(=O)Nc1n[nH]c2c1CN(C(=O)N1C[C@@H](C)N(CC3CCOCC3)C[C@@H]1C)C2(C)C [Example F15] | 52.1
Cc1nc(C)c(C(=O)Nc2n[nH]c3c2CN(C(=O)N2C[C@@H](C)N(CCCO)C[C@@H]2C)C3(C)C)o1 [Example A160] | 24.9
C[C@@H]1CN(C(=O)N2Cc3c(NC(=O)c4ccccn4)n[nH]c3C2(C)C)[C@@H](C)CN1CCCC#N [Example A141] | 23.6
C[C@@H]1CN(C(=O)N2Cc3c(NC(=O)c4cnccn4)n[nH]c3C2(C)C)[C@@H](C)CN1CC1CCOCC1 [Example F57] | 52.7
